From the supplement of paper PMC10307832

Legend:
Test in all cases: relative viability (nuclei count vs DMSO), 5 days (fraction); higher = more cells survive
[1] = system: COR-L 105
How it was run: (§1)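 Lung cancer cell lines in 1536-well plates were dosed by pin tool the day after seeding, either with one drug alone or with a fixed anchor-drug dose plus five library-drug doses (not always all listed) in √10 steps. After 5 days, cells were fixed and their nuclei stained in one step (final 0.05% Triton X-100, 1% formaldehyde, 1 ug/ml Hoechst), then counted on 4× images. Relative viability is the nuclei count in treated wells divided by that in vehicle wells. Values are medians of duplicate plates.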

[2] = system: COR-L23
How it was run: as §1

[3] = system: HARA
How it was run: as §1

[4] = system: HCC-15
How it was run: as §1

[5] = system: HOP-62
How it was run: as §1

[6] = system: NCI-H1355
How it was run: as §1

[7] = system: NCI-H1395
How it was run: as §1

[8] = system: NCI-H1734
How it was run: as §1

[9] = system: NCI-H1755
How it was run: as §1

[10] = system: NCI-H1792
How it was run: as §1

[11] = system: NCI-H1793
How it was run: as §1

[12] = system: NCI-H1993
How it was run: as §1

[13] = system: NCI-H2009
How it was run: as §1

[14] = system: NCI-H2170
How it was run: as §1

[15] = system: NCI-H2228
How it was run: as §1

[16] = system: NCI-H2347
How it was run: as §1

[17] = system: NCI-H358
How it was run: as §1

[18] = system: NCI-H522
How it was run: as §1

[19] = system: NCI-H647
How it was run: as §1

[20] = system: NCI-H838
How it was run: as §1

[21] = system: SK-MES-1
How it was run: as §1

[22] = system: UMC-11
How it was run: as §1

**Q.** Which results are given for `CC(=O)O[C@@]12CO[C@@H]1C[C@H](O)[C@@]1(C)C(=O)[C@H](O)C3=C(C)[C@@H](OC(=O)[C@H](O)[C@@H](NC(=O)OC(C)(C)C)c4ccccc4)C[C@@](O)([C@@H](OC(=O)c4ccccc4)[C@H]21)C3(C)C` [Docetaxel] + COc1cccc2cc(-c3nc([C@H]4CC[C@H](C(=O)O)CC4)n4ncnc(N)c34)[nH]c12 [OSI-027] (partner 0.5 µM)?
**A.** relative viability ([1]; first compound 0.0002 µM): 0.569; relative viability ([1]; first compound 0.000632 µM): 0.654; relative viability ([1]; first compound 0.002 µM): 0.408; relative viability ([1]; first compound 0.006325 µM): 0.277; relative viability ([1]; first compound 0.02 µM): 0.289; relative viability ([2]; first compound 0.0002 µM): 0.715; relative viability ([2]; first compound 0.000632 µM): 0.689; relative viability ([2]; first compound 0.002 µM): 0.444; relative viability ([2]; first compound 0.006325 µM): 0.147; relative viability ([2]; first compound 0.02 µM): 0.116; relative viability ([3]; first compound 0.0002 µM): 0.341; relative viability ([3]; first compound 0.000632 µM): 0.159; relative viability ([3]; first compound 0.002 µM): 0.0997; relative viability ([3]; first compound 0.006325 µM): 0.106; relative viability ([3]; first compound 0.02 µM): 0.0539; relative viability ([4]; first compound 0.0002 µM): 0.542; relative viability ([4]; first compound 0.000632 µM): 0.246; relative viability ([4]; first compound 0.002 µM): 0.205; relative viability ([4]; first compound 0.006325 µM): 0.219; relative viability ([4]; first compound 0.02 µM): 0.133; relative viability ([5]; first compound 0.0002 µM): 0.835; relative viability ([5]; first compound 0.000632 µM): 0.631; relative viability ([5]; first compound 0.002 µM): 0.369; relative viability ([6]; first compound 0.0002 µM): 0.431; relative viability ([6]; first compound 0.000632 µM): 0.386; relative viability ([6]; first compound 0.002 µM): 0.252; relative viability ([6]; first compound 0.006325 µM): 0.275; relative viability ([6]; first compound 0.02 µM): 0.198; relative viability ([7]; first compound 0.0002 µM): 0.609; relative viability ([7]; first compound 0.000632 µM): 0.657; relative viability ([7]; first compound 0.002 µM): 0.538; relative viability ([7]; first compound 0.006325 µM): 0.373; relative viability ([7]; first compound 0.02 µM): 0.272; relative viability ([8]; first compound 0.0002 µM): 0.573; relative viability ([8]; first compound 0.000632 µM): 0.482; relative viability ([8]; first compound 0.002 µM): 0.307; relative viability ([8]; first compound 0.006325 µM): 0.35; relative viability ([8]; first compound 0.02 µM): 0.242; relative viability ([9]; first compound 0.0002 µM): 0.677; relative viability ([9]; first compound 0.000632 µM): 0.554; relative viability ([9]; first compound 0.002 µM): 0.402; relative viability ([9]; first compound 0.006325 µM): 0.39; relative viability ([9]; first compound 0.02 µM): 0.353; relative viability ([10]; first compound 0.0002 µM): 0.673; relative viability ([10]; first compound 0.000632 µM): 0.699; relative viability ([10]; first compound 0.002 µM): 0.545; relative viability ([10]; first compound 0.006325 µM): 0.409; relative viability ([10]; first compound 0.02 µM): 0.186; relative viability ([11]; first compound 0.0002 µM): 0.282; relative viability ([11]; first compound 0.000632 µM): 0.275; relative viability ([11]; first compound 0.002 µM): 0.227; relative viability ([11]; first compound 0.006325 µM): 0.181; relative viability ([11]; first compound 0.02 µM): 0.15; relative viability ([12]; first compound 0.0002 µM): 0.556; relative viability ([12]; first compound 0.000632 µM): 0.616; relative viability ([12]; first compound 0.002 µM): 0.6; relative viability ([12]; first compound 0.006325 µM): 0.501; relative viability ([12]; first compound 0.02 µM): 0.414; relative viability ([13]; first compound 0.0002 µM): 0.618; relative viability ([13]; first compound 0.000632 µM): 0.66; relative viability ([13]; first compound 0.002 µM): 0.491; relative viability ([13]; first compound 0.006325 µM): 0.231; relative viability ([13]; first compound 0.02 µM): 0.134; relative viability ([14]; first compound 0.0002 µM): 0.734; relative viability ([14]; first compound 0.000632 µM): 0.754; relative viability ([14]; first compound 0.002 µM): 0.339; relative viability ([14]; first compound 0.006325 µM): 0.256; relative viability ([15]; first compound 0.0002 µM): 0.456; relative viability ([15]; first compound 0.000632 µM): 0.147; relative viability ([15]; first compound 0.002 µM): 0.159; relative viability ([15]; first compound 0.006325 µM): 0.161; relative viability ([15]; first compound 0.02 µM): 0.112; relative viability ([16]; first compound 0.0002 µM): 0.435; relative viability ([16]; first compound 0.000632 µM): 0.382; relative viability ([16]; first compound 0.002 µM): 0.329; relative viability ([16]; first compound 0.006325 µM): 0.282; relative viability ([16]; first compound 0.02 µM): 0.249; relative viability ([17]; first compound 0.0002 µM): 0.738; relative viability ([17]; first compound 0.000632 µM): 0.23; relative viability ([17]; first compound 0.006325 µM): 0.0795; relative viability ([17]; first compound 0.02 µM): 0.0599; relative viability ([18]; first compound 0.0002 µM): 0.666; relative viability ([18]; first compound 0.000632 µM): 0.657; relative viability ([18]; first compound 0.002 µM): 0.541; relative viability ([18]; first compound 0.006325 µM): 0.496; relative viability ([18]; first compound 0.02 µM): 0.426; relative viability ([19]; first compound 0.0002 µM): 0.524; relative viability ([19]; first compound 0.000632 µM): 0.432; relative viability ([19]; first compound 0.002 µM): 0.229; relative viability ([19]; first compound 0.006325 µM): 0.0929; relative viability ([19]; first compound 0.02 µM): 0.0717; relative viability ([20]; first compound 0.0002 µM): 0.331; relative viability ([20]; first compound 0.000632 µM): 0.422; relative viability ([20]; first compound 0.002 µM): 0.259; relative viability ([20]; first compound 0.006325 µM): 0.16; relative viability ([20]; first compound 0.02 µM): 0.134; relative viability ([21]; first compound 0.0002 µM): 0.621; relative viability ([21]; first compound 0.000632 µM): 0.506; relative viability ([21]; first compound 0.002 µM): 0.276; relative viability ([21]; first compound 0.006325 µM): 0.22; relative viability ([21]; first compound 0.02 µM): 0.112; relative viability ([22]; first compound 0.0002 µM): 0.433; relative viability ([22]; first compound 0.000632 µM): 0.469; relative viability ([22]; first compound 0.002 µM): 0.231; relative viability ([22]; first compound 0.006325 µM): 0.244; relative viability ([22]; first compound 0.02 µM): 0.175
